Assays:
Huh-7 cells [1] = assay: Standard XTT assay (overall cell metabolism); format: cell-based; settings: at a concentration that effectively inhibits HDV virion production
Description: (§1) FIG. 8 illustrates that FT1-277 inhibits production of HDV virions. Huh-7 cells were co-transfected with HDV and HBV encoding plasmids to establish production of HDV virions, as described in the text, and grown in the presence of the indicated concentrations of FTI-277. HDV genome replication in the cells, and the amount of HDV genome-containing virions released into the supernatants, were monitored by northern blot analysis with a probe for HDV genomic RNA (left panel). The results were quantitated with a phosphoimager and the amount of virions produced at each concentration of FTI-277, expressed as a percentage of the no drug control, was plotted (purple bars, right panel). Also plotted are the results of assays for cellular metabolism (XTT assay, yellow bars), and general protein synthesis and secretion (HBV surface antigen released into the media supernatants, blue bars).
(§2) FTI-277, a prenylation inhibitor, was tested for its ability to inhibit HDV virion production. […] Non-specific toxicity was assessed by free HBV surface antigen assay, which assesses effects on general protein synthesis and secretion, and a standard XTT assay, which measures overall cell metabolism.

HDV virions [2] = assay: Inhibition of HDV virion production in co-transfected Huh-7 cells (northern blot for HDV genomic RNA); format: cell-based, hepatitis delta virus (HDV); settings: Huh-7 cells co-transfected with HDV and HBV plasmids
Description: as §1
Completely infectious HDV particles were produced using the system disclosed in Sureau et al., J. Virol., 66:1241-5 (1992). […]
as §2

[3] = Serum alanine aminotransferase (ALT) assay for non-specific toxicity; settings: HBV-transgenic mice, 50 mg/kg/day IP for one week, on average
Huh-7 cells [4] = assay: Free HBV surface antigen assay (general protein synthesis and secretion); format: cell-based; settings: at a concentration that effectively inhibits HDV virion production
Description: as §1, §2

HDV virions [5] = assay: In vivo treatment of HDV in HBV-transgenic mice, serum HDV virions by RT-PCR; settings: 50 mg/kg/day IP for one week

Which “overall cell metabolism (XTT assay)” value (Huh-7 cells [1]) does the source give for COC(=O)[C@H](CCSC)NC(=O)c1ccc(NC[C@@H](N)CS)cc1-c1ccccc1 [FTI-277] here?
The value was “essentially does not affect”.

What about the HDV virion production (HDV virions [2]; micromolar concentration) of the same compound?
The HDV virion production was “no detectable HDV virions produced”.

And the HDV virion production (HDV virions [2]; mid-nanomolar concentration)?
Its HDV virion production is “dramatically inhibited”.

What about the “level of ALT compared with the placebo” value [3] of the same compound?
Its value is “same level of ALT as the placebo”.

And the “general protein synthesis and secretion (free HBV surface antigen released into media)” value (Huh-7 cells [4])?
Its value is “essentially does not affect”.

And the “production and release of HDV virions into the serum” value (HDV virions [5])?
The value was “completely eliminated”.

Source: patent US20080214471A1, “Method for inhibition of viral infection” (priority 1992, published 2008)
